Where a name gives a salt, the structure may show the parent alone. Read-outs that look alike come from different tables or passages of the source.

Common to all, as to type: binding, sheep
Assay [1] concerns Antibody to Immunogen III. In outline:
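Plates were coated with IgG from antiserum to Immunogen III, and JWH-250 standards (0–40 ng/ml) competed with hapten-HRP conjugate for 1 h at 25°C. Detection used TMB with A450. IC50 is the concentration giving half the 0 ng/ml OD on a 4-parameter fit, and cross-reactivity was taken from calibration curves using a single level of each cross-reactant.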

For the next assay, the system named is Antibody to Immunogen VI. A digest of the protocol:
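Plates coated with IgG from anti-Immunogen VI antiserum; RCS-4 standards (0–20 ng/ml) compete with hapten-HRP conjugate for 1 h at 25°C. TMB read at 450 nm, 4-parameter fit; IC50 at half the zero-standard OD. Cross-reactivity from single-level cross-reactant solutions against calibration curves.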

A further assay relates to Antibody to Immunogen V. In outline:
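Plates coated with anti-Immunogen V IgG; RCS-8 standards (0–80 ng/ml in TBST) compete with hapten-HRP conjugate 1 h at 25°C, TMB readout at 450 nm. IC50 from 4-parameter fit as concentration at half the zero-standard OD; cross-reactivity from single-level cross-reactant versus calibration curve.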

[2] abbreviates: Cross-reactants at 100 ng/ml, 1000ng/ml, single level of cross reactants.

As to `CCCCCn1cc(C(=O)c2cccc3ccc(CC)cc23)c2ccccc21` [JWH-210 7-ethylnaphthyl isomer or JWH-234], the entries for the “%B/B0” value (in assay [1] (setting [2]); in the assay with Antibody to Immunogen VI (setting [2]); with Antibody to Immunogen V (setting [2])) were 73.32%, 87.07% and 85.10%, respectively.
With `CCc1ccc(C(=O)c2cn(CCCCCC(=O)O)c3ccccc23)c2ccccc12` [JWH-210 N-(5-carboxypentyl) metabo lite], the “%B/B0” value in assay [1] (setting [2]) is on record as 94.24%; in the assay on Antibody to Immunogen VI (setting [2]), 63.50%; in the assay with Antibody to Immunogen V (setting [2]) it was 70.77%.
In the case of `CCCCCn1cc(C(=O)c2ccc(CC)c3ccccc23)c2ccccc21` [JWH-210], the “%B/B0” value turned out to be 69.64% in assay [1] (setting [2]), 72.07% in the assay with Antibody to Immunogen VI (setting [2]) and 70.20% in the assay with Antibody to Immunogen V (setting [2]).
Consider `CCCCCn1cc(C(=O)Cc2ccccc2OC)c2ccccc21` [JWH-250, 2-(2-methoxyphenyl)-1-(1-pentyl-1H-indol-3-yl)ethanone], for which the “%B/B0” value in assay [1] (setting [2]) was 11.91%; in assay [1] (standard curve, JWH-250 1 ng/ml (first row printed 1)) it was 84%; in assay [1] (standard curve, JWH-250 1 ng/ml (second row printed 1)), 70%; in assay [1] (standard curve, JWH-250 3 ng/ml), 59%; in assay [1] (standard curve, JWH-250 5 ng/ml), 43%; in assay [1] (standard curve, JWH-250 10 ng/ml), 38%. Moreover, the “%B/B0” value in assay [1] (standard curve, JWH-250 20 ng/ml) is reported as 29%; in assay [1] (standard curve, JWH-250 40 ng/ml) it was 23%; in the assay on Antibody to Immunogen VI (setting [2]) it was 82.17%; with Antibody to Immunogen V (setting [2]), 8.74%. For the same compound, the IC50 (as a rule, the point on the concentration scale where inhibition reaches its midpoint) in assay [1] (standard JWH-250, standard concentration which produces 50% B/B0) turned out to be 3.850 ng/mL.
Take `CCCCCn1cc(C(=O)Cc2ccccc2C)c2ccccc21` [JWH-251]: the “%B/B0” value is 17.28% in assay [1] (setting [2]), 79.72% in the assay with Antibody to Immunogen VI (setting [2]) and 13.61% in the assay with Antibody to Immunogen V (setting [2]).
On to `CCCCCn1cc(C(=O)Cc2cccc(OC)c2)c2ccccc21` [JWH-302], for which the “%B/B0” value in assay [1] (setting [2]) was 19.97%; in the assay on Antibody to Immunogen VI (setting [2]) it was 71.16%; in the assay on Antibody to Immunogen V (setting [2]), 32.66%.
Take `CCCCCn1cc(C(=O)c2cccc3c(Cl)cccc23)c2ccccc21` [JWH-398 5-chloronaphthyl isomer]: the “%B/B0” value in assay [1] (setting [2]) was 64.92%; in the assay on Antibody to Immunogen VI (setting [2]) it was 76.13%; with Antibody to Immunogen V (setting [2]) it was 70.34%.
For `O=C(c1ccc(Cl)c2ccccc12)c1cn(CCCCCO)c2ccccc12` [JWH-398 N-(5-hydroxypentyl) metabo lite], the results for the “%B/B0” value (in assay [1] (setting [2]); in the assay with Antibody to Immunogen VI (setting [2]); in the assay on Antibody to Immunogen V (setting [2])) were 76.01%, 69.24% and 55.87%, respectively.
Taken in the same sequence, the figures for `CCCCCn1cc(C(=O)c2ccc(Cl)c3ccccc23)c2ccccc21` [JWH-398] were 71.37%, 72.30% and 65.76%.
Consider `O=C(c1cccc2ccccc12)c1c[nH]c2ccccc12` [N-desalkyl JWH-018: LK1012 10CD194], for which the “%B/B0” value in assay [1] (setting [2]) was determined as 99.73%; with Antibody to Immunogen VI (setting [2]), 87.49%; in the assay on Antibody to Immunogen V (setting [2]) it was 81.80%.
In the case of `CCCCCn1cc(C(=O)c2ccccc2OC)c2ccccc21` [RCS-4 2-methoxy isomer], the “%B/B0” value was found to be 64.43% in assay [1] (setting [2]), 81.06% in the assay on Antibody to Immunogen VI (setting [2]) and 68.38% with Antibody to Immunogen V (setting [2]).
Turning to `CCCCCn1cc(C(=O)c2cccc(OC)c2)c2ccccc21` [RCS-4 3-methoxy isomer], the entries for the “%B/B0” value (in assay [1] (setting [2]); in the assay with Antibody to Immunogen VI (setting [2]); with Antibody to Immunogen V (setting [2])) were 58.00%, 41.84% and 66.18%, respectively.
Taken in the same sequence, the figures for `COc1ccc(C(=O)c2cn(CCCC(C)O)c3ccccc23)cc1` (stereo not drawn) [RCS-4 N-(4-hydroxypentyl) metabolite] were 66.40%, 5.69% and 71.93%.
On to `COc1ccc(C(=O)c2cn(CCCCCC(=O)O)c3ccccc23)cc1` [RCS-4 N-(5-carboxypentyl) metabolite], for which the “%B/B0” value in assay [1] (setting [2]) is 91.87%; in the assay on Antibody to Immunogen VI (setting [2]) it was 4.25%; in the assay with Antibody to Immunogen V (setting [2]) it was 60.79%.
Taken in the same sequence, the figures for `COc1ccc(C(=O)c2cn(CCCCCO)c3ccccc23)cc1` [RCS-4 N-(5-hydroxypentyl) metabolite] were 72.34%, 3.76% and 63.69%.
For `CCCCCn1cc(C(=O)c2ccc(OC)cc2)c2ccccc21` [RCS-4], the “%B/B0” value in assay [1] (setting [2]) was 57.10%; in the assay on Antibody to Immunogen VI (setting [2]), 4.90%; in the assay with Antibody to Immunogen VI (standard curve, RCS-4 0.3125 ng/ml), 74%; in the assay on Antibody to Immunogen VI (standard curve, RCS-4 0.625 ng/ml) it was 60%; with Antibody to Immunogen VI (standard curve, RCS-4 1.25 ng/ml), 46%; in the assay on Antibody to Immunogen VI (standard curve, RCS-4 2.5 ng/ml), 34%. The “%B/B0” value with Antibody to Immunogen VI (standard curve, RCS-4 5 ng/ml) turned out to be 25%; in the assay with Antibody to Immunogen VI (standard curve, RCS-4 10 ng/ml), 18%; with Antibody to Immunogen VI (standard curve, RCS-4 20 ng/ml) it was 13%; in the assay with Antibody to Immunogen V (setting [2]) it was 64.84%. For the same compound, the “IC50” value in the assay on Antibody to Immunogen VI (standard RCS-4, standard concentration which produces 50% B/B0) was 1.020 ng/mL.
`COc1cccc(CC(=O)c2cn(CCC3CCCCC3)c3ccccc23)c1` [RCS-8 3-methoxy isomer]: the “%B/B0” value worked out at 69.47% in assay [1] (setting [2]), 79.95% in the assay with Antibody to Immunogen VI (setting [2]) and 38.01% in the assay on Antibody to Immunogen V (setting [2]).
Regarding `COc1ccc(CC(=O)c2cn(CCC3CCCCC3)c3ccccc23)cc1` [RCS-8 4-methoxy isomer], the “%B/B0” value in assay [1] (setting [2]) was determined as 76.06%; in the assay with Antibody to Immunogen VI (setting [2]), 89.48%; in the assay with Antibody to Immunogen V (setting [2]), 81.97%.
On to `COc1ccccc1CC(=O)c1cn(CCC2CCCCC2)c2ccccc12` [RCS-8 (SR-18)], for which the “%B/B0” value is 64.72% in assay [1] (setting [2]); 85.46% in the assay with Antibody to Immunogen VI (setting [2]); 8.34% with Antibody to Immunogen V (setting [2]); 82% in the assay with Antibody to Immunogen V (standard curve, RCS-8 1.25 ng/ml); 71% in the assay with Antibody to Immunogen V (standard curve, RCS-8 2.5 ng/ml); 57% in the assay with Antibody to Immunogen V (standard curve, RCS-8 5 ng/ml). Besides, the “%B/B0” value with Antibody to Immunogen V (standard curve, RCS-8 10 ng/ml) is given as 43%; in the assay with Antibody to Immunogen V (standard curve, RCS-8 20 ng/ml), 34%; with Antibody to Immunogen V (standard curve, RCS-8 40 ng/ml), 25%; in the assay on Antibody to Immunogen V (standard curve, RCS-8 80 ng/ml), 19%. In addition, in the assay on Antibody to Immunogen V (standard RCS-8, standard concentration which produces 50% B/B0), the “IC50” value amounted to 7.23 ng/mL.
Turning to `NCCc1c[nH]c2ccc(O)cc12` [Serotonin HCl], the “%B/B0” value in assay [1] (setting [2]) is 87.69%; in the assay on Antibody to Immunogen VI (setting [2]), 98.60%; in the assay on Antibody to Immunogen V (setting [2]), 85.91%.
Taken in the same sequence, the figures for `O=C(c1cccc2ccccc12)c1cn(CCN2CCOCC2)c2ccccc12` [WIN 55,225 (other name JWH-200)] were 88.39%, 71.03% and 49.45%.
Taken in the same sequence, the figures for `COc1ccc(C(=O)c2c(C)n(CCN3CCOCC3)c3ccccc23)cc1` [WIN-48,098 (other name Pravadoline), Pravadoline] were 89.21%, 23.84% and 77.87%.
Taken in the same sequence, the figures for `CS(=O)(=O)O.Cc1c(C(=O)c2cccc3ccccc23)c2cccc3c2n1[C@@H](CN1CCOCC1)CO3` [Win 55,212-3 mesylate] were 87.64%, 83.98% and 72.78%.
Consider (+)-CP 55,940, for which the “%B/B0” value in assay [1] (setting [2]) is reported as 92.49%; in the assay with Antibody to Immunogen VI (setting [2]), 94.76%; with Antibody to Immunogen V (setting [2]) it was 74.18%.
Consider (-)-11-nor-9-Carboxy-delta9-THC, for which the “%B/B0” value in assay [1] is 89.45%; in the assay with Antibody to Immunogen VI, 96.32%; in the assay with Antibody to Immunogen V, 89.31%.
For the compound (-)-CP 55,940, the “%B/B0” value is reported as 90.16% in assay [1] (setting [2]), 94.76% in the assay with Antibody to Immunogen VI (setting [2]) and 91.41% in the assay with Antibody to Immunogen V (setting [2]).

The values are drawn from patent EP2698384A1, “Detection of synthetic cannabinoids” (priority 2012, dated 2014).
